# Literature values as cited in patent US10864317B2, “Time controlled periodic infusion” (Ferrosan Medical Devices A/S, priority 2014, dated 2020).
# System: peripheral nerve
# Conditions: ropivacaine as LA; dependent on regional and individual differences
smiles,measurement,value
CCCN1CCCC[C@H]1C(=O)Nc1c(C)cccc1C [ropivacaine],duration of pain relief for nerve blocks,about 12 h
